Data set [1] concerns tactile (mechanical) allodynia in hindpaws of STZ-diabetic rats. As to the kind of experiment: Anti-allodynia by von Frey paw withdrawal thresholds (PWT) in STZ-diabetic rats. The class given is in vivo, Wistar rats. The procedure: Following this, the jugular cannula was withdrawn, the vein tied off, and the incision sutured. Following surgery, rats received antibiotic prophylaxis in the form of topical dusting powder over the sutured incisions, as well as a subcutaneous injection of benzylpenicillin (60 mg). Rats were placed in individual cages, kept warm and monitored closely during the surgical recovery period. Rats were classified as diabetic if on day 10 post-STZ administration, their daily water intake was ≧100 mL and their corresponding blood glucose levels (BGLs) were ≧15 mM.
Calibrated von Frey filaments were used to document the time course for the development and maintenance of tactile allodynia (defining symptom of PDN).
(§1) Briefly, baseline PWTs were determined for both hindpaws prior to each antinociceptive testing session in the non-diabetic control group at week 0 as well as in groups of STZ-diabetic rats at 10, 14 and 24 wks.
(§2) The PWT vs time data were normalized by subtracting the pre-dosing baseline PWT values for each individual rat to obtain ΔPWT values as follows: Normalized (Δ)PWT value=Post-treatment PWT value−PWT value prior to treatment.
(§3) ΔPWT versus time curves were then constructed. Trapezoidal integration was used to estimate ΔPWT AUC values for individual rats in the non-diabetic and STZ-diabetic rat treatment groups. ΔPWT AUC versus dose curves were constructed and GraphPad™ Prism was used to estimate the ˜ED50 values.

The subject of data set [2] is hindpaws of control non-diabetic rats. The data set can be described thus: Antinociception by von Frey PWT in control non-diabetic rats. The data set is classed as in vivo, Wistar rats. The following applies: single s.c. bolus; morphine 1.8-21.4 μmol/kg, Compound 1 2-20 fmol/kg. As to the method: as §1, §2, §3
Data set [3] concerns the target T1, μ-opioid receptors (MOP receptors) (Mus musculus, UniProt P42866).
T1 construct: expressed in transfected cells; host or cells: HEK293
The class given is cell-based. The note with it: 2% βCD 1 h 37° C.; reversed by βCD-cholesterol complexes. The procedure:
Briefly, HEK-MOP cells were pre-incubated with 2% (2-hydroxypropyl)-β-cyclodextrin (βCD) for 1 h at 37° C. to deplete cholesterol from caveloae in the cell membrane. Cells were washed with DMEM and then utilized in the forskolin-stimulated cAMP assay as described above. […] Cells were washed with DMEM and then utilized in the forskolin-stimulated cAMP assay as described above.

Data set [4] concerns STZ-diabetic rats. As to the kind of experiment: Behavioural side-effects in STZ-diabetic rats. The note with it: Compound 1 800 pmol/kg s.c.; morphine 21 μmol/kg. The data set is classed as in vivo.
Data set [5] has as its target T1, μ-opioid receptors (MOP receptors). The data set is classed as cell-based.
For data set [6], the target named is δ-opioid receptors (DOP receptors) (Mus musculus, UniProt P32300). As to the kind of experiment: Forskolin-stimulated cAMP responses in DOP-transfected HEK293 cells. The note with it: DOP-transfected HEK293, entire concentration range tested.
δ-opioid receptors (DOP receptors), sequence (P32300 whole entry): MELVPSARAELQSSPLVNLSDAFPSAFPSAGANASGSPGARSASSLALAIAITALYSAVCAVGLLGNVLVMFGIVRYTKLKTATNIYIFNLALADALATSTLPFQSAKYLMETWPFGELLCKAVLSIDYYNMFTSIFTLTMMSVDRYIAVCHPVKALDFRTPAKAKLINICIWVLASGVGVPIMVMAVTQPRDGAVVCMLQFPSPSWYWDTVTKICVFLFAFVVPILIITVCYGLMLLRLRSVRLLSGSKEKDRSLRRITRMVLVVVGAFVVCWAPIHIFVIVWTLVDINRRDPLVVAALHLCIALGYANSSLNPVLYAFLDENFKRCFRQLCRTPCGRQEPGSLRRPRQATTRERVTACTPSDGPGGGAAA
Protocol: Non-transfected HEK293 cells were used as a control. Transfected HEK293 cells were maintained in Dulbecco's Modified Eagle's Medium (DMEM) supplemented with 10% fetal bovine serum (FBS) and geneticin (1 mg/mL). Non-transfected HEK293 cells were maintained in DMEM supplemented with 10% FBS.
The functional interaction between opioids and opioid-like compounds and specific opioid G-protein-coupled receptors (GPCRs) was assessed by measuring changes in intracellular cAMP levels relative to basal levels. The Alphascreen cAMP functional assay measures agonist and antagonist activity of GPCRs by stimulating cells to either increase or decrease intracellular cAMP levels. The assay was performed using an Alphascreen cAMP kit according to the manufacturer's instructions. […]
Detection of cAMP is based on the competition between intracellular cAMP and biotinylated cAMP linked streptavidin-coated donor beads for anti-cAMP conjugated acceptor beads. When the donor and acceptor beads are in close proximity visible light emitted at 520-620 nm is detected using the Envision multilabel plate reader. […]
The assay performance was optimized by using cells at low passage number and at 70-90% confluence. […] The cell concentration was determined using a haemocytometer. […] Note that the cell number will influence the cAMP levels measured before (basal) and after adenylyl cyclase activation. […]
[7] abbreviates: 10 wks post-STZ, Compound 1 s.c. (FIG. 3B).
Where [8] appears, read: 14 and 24 wks post-STZ, Compound 1 80 and 800 pmol/kg s.c.

“Also recorded” adds a separate entry of the source. A value given as a limit tells only on which side of the number the result lay.

Here are results for one compound from US8822509B2, “Pain-relieving compositions and uses therefor” (priority 2006, dated 2014).

T1 sequence (P42866 whole entry): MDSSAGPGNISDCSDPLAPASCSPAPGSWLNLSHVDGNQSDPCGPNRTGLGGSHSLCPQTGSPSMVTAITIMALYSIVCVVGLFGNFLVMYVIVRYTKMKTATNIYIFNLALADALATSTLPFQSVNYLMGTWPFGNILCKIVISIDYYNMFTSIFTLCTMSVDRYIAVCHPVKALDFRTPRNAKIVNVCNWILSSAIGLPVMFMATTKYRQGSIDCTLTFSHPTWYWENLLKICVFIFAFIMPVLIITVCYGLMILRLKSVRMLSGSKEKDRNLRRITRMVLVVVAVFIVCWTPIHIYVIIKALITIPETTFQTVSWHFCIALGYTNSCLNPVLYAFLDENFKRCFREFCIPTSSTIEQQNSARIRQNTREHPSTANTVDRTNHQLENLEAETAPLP

For the compound `Cc1c(C=O)no[n+]1[O-]` [Compound 1, 4-formyl-3-methyl-1,2,5-oxadiazole-2-oxide], the “relief of mechanical allodynia at time of peak effect” value in data set [1] (10 wks post-STZ, Compound 1 8 fmol/kg s.c.) is listed as “complete relief of mechanical allodynia”. For the same compound, in data set [1] (setting [7]), the “mean duration of action” value is given as over 3 h, the “peak anti-allodynic response (PWT)” value worked out at 10.6 ± 0.5 g and the “time of peak anti-allodynic response post-dosing” value was about 75 min. For the same compound, in data set [1] (setting [8]), the “alleviation of mechanical allodynia at time of peak response” value is given as “fully alleviated” and the duration of action is recorded as at least 3 h. Also, in data set [1] (14 weeks post-STZ, Compound 1 fmol/kg doses), the “anti-allodynic effect of doses used at week 10” value was “no longer effective”. In data set [1] (single s.c. bolus at 10, 14, 24 wks post-STZ), the “anti-allodynia in the hindpaws of STZ-diabetic rats” value is recorded as “dose-dependent anti-allodynia/antinociception”. Also, the “antinociception in the hindpaws of control non-diabetic rats” value in data set [2] is “dose-dependent antinociception”. In data set [3], the “effect of lipid raft/caveolae depletion on cAMP effects” value was “inhibited the effects of Compound 1; also recorded: sensitive to removal of lipid rafts/caveolae”. Further, the “behavioural side-effects at highest dose” value in data set [4] is recorded as “no discernable side-effects”. The “effect of naloxone pre-incubation on inhibition of forskolin-stimulated cAMP formation” value in data set [5] is “not by naloxone”. Moreover, the “inhibition of forskolin-stimulated cAMP formation” value in data set [5] (MOP-transfected HEK293, mM, pM and aM concentrations) is listed as “inhibited forskolin-stimulated cAMP formation”. The “effect of ODQ pre-incubation on modulation of forskolin-stimulated cAMP formation” value in data set [5] (ODQ 10 μM) is “did not significantly attenuate”. For the same compound, in data set [5] (PTX 100 ng/mL 16 h, Compound 1 1 aM, morphine 1 μM), the “effect of pertussis toxin pre-incubation on inhibition of forskolin-stimulated cAMP formation” value was “abolished by pre-incubation with pertussis toxin”. Moreover, the “inhibition of forskolin-stimulated cAMP formation” value in data set [6] was “did not appear to inhibit”.
